“Also recorded” adds a separate entry of the source. Read-outs that look alike come from different tables or passages of the source. Blank lines part the entries; values can stand above or below the compound they belong to.
Experiments:
Type in all cases: biochemical
UDP-glucose 4'-epimerase [1] = target: T1, UDP-glucose 4'-epimerase (Saccharomyces cerevisiae, UniProt P04397); experiment: Stability (rel. activity) of the epimerase in the presence of various donors and acceptors of GalT; settings: for inactivation of the epimerase (in words): donors and acceptors of GalT, acceptors in the presence of UMP
T1 sequence (P04397 whole entry): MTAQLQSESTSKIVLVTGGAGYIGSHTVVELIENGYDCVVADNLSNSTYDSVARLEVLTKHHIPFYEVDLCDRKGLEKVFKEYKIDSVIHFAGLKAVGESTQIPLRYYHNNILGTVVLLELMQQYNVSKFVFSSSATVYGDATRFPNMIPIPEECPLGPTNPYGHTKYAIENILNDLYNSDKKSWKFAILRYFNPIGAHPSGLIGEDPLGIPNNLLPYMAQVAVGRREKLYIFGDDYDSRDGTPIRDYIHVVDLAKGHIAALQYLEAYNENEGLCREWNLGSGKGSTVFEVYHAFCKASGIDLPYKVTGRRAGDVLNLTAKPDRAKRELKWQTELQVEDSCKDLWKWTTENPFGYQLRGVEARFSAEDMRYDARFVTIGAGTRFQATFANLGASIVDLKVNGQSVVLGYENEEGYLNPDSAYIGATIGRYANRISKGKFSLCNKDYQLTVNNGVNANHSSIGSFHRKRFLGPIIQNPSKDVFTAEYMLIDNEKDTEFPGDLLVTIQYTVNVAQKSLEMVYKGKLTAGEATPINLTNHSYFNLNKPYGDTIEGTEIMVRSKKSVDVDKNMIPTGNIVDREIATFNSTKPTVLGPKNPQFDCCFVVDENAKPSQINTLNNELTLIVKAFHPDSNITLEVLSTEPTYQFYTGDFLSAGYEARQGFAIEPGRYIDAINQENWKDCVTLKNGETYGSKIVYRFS
Procedure: 893 μl of 100 mM glycine buffer, pH 8.8
In order to examine the thesis that the inactivation of the epimerase can occur in association with many applications, the stability of the epimerase was tested in the presence of various donors and acceptors of GalT.
P: 200 mM HepesNaOH, pH 7.2, 1 mM DTT, 1 mg/ml BSA, 25 mM KCl containing
R: Activity following reactivation of the epimerase with
dTDP6-deoxy-D-xylo-4-hexulose (c = 0.1 mM)

UDP-glucose 4'-epimerase [2] = target: T1, UDP-glucose 4'-epimerase; experiment: Reactivation of the inactivated epimerase with activator; settings: for time after which renewed inactivation of the epimerase is observed: activator 0.1 mM, galactose and UMP still present in the mixture
Procedure: Both dUDP-6-deoxy-D-xylo-4-hexulose and dTDP-6-deoxy-D-xylo-4-hexulose, and also 6-deoxyglucosone, galactosone, allosone and glucosone, were used for reactivating the epimerase.
2. Inactivation of the epimerase
1 mg/ml bovine serum albumin (BSA)
3. Activation of the epimerase
160 μl of inactivated epimerase
40 μl of activator (different concentrations)

UDP-glucose 4'-epimerase [3] = target: T1, UDP-glucose 4'-epimerase; experiment: Inactivation of the epimerase by sugar in the presence of UMP; settings: 500 mM sucrose, 0.1 mM UMP, Hepes pH 7.2, 30° C., 8 hours
Procedure: A: 200 mM Hepes pH 7.2, 1 mM DTT, 1 mg/ml BSA B: 200 mM Hepes pH 7.2, 1 mM DTT, 1 mg/ml BSA, 500 mM sucrose A. Buffer solution A B. Buffer solution A, 0.1 mM UMP C. Buffer solution B D. […] Incubation temperature: 30° C. Activity test: (Fukusawa et al., J. Biol. Chem. 255, 2705-2707 (1980)) | 893 μl of 100 mM glycine buffer, pH 8.8 | 20 μl of 5 mM UDP-Gal | 20 μl of 50 mM NAD […] |33.3 μl of epimerase Temperature: 25° C. Measurement at 340 nm

[4] = 2 h, acceptor 50 mM, buffer P pH 7.2 containing 0.1 mM UMP, read-out: Rel. activity of the epimerase, incubation time 2h
[5] = acceptor 50 mM, buffer P pH 7.2 containing 0.1 mM UMP
[6] = inactivated epimerase plus activator, different concentrations
[7] = 2 h, pH 7.2, read-out: Rel. activity of the epimerase, incubation time 2h

- activity at 50000 µM (UDP-glucose 4'-epimerase [1]; [4]): 87.9%
- Rel. activity of the epimerase, incubation time 7h (UDP-glucose 4'-epimerase [1]; [5]): 34.3
- inactivation of the epimerase (in words) (UDP-glucose 4'-epimerase [1]): inactivated
SMILES: OC[C@H]1SC(O)[C@H](O)[C@@H](O)[C@@H]1O (stereo partly drawn) [Thioglc, 5-thio-D-glucose]

- reactivation of the epimerase (in words) (UDP-glucose 4'-epimerase [2]): can be used to reactivate
- time after which renewed inactivation of the epimerase is observed (UDP-glucose 4'-epimerase [2]): 32 h
- activation of the epimerase (in words) (UDP-glucose 4'-epimerase [2]; [6]): rapid and long-lasting activation
SMILES: Cc1cn([C@H]2C[C@H](O)[C@@H](COP(=O)(O)OP(=O)(O)O[C@H]3O[C@H](C)C(=O)[C@H](O)[C@H]3O)O2)c(=O)[nH]c1=O [dTDP-6-deoxy-D-xylo-4-hexulose]

- inactivation of the epimerase (in words) (UDP-glucose 4'-epimerase [3]): inactivated
SMILES: OC[C@H]1O[C@@](CO)(O[C@H]2O[C@H](CO)[C@@H](O)[C@H](O)[C@H]2O)[C@@H](O)[C@@H]1O [sucrose]

SMILES: OC[C@H]1OC(O)[C@H](O)[C@@H](O)[C@H]1O (stereo partly shown) [galactose]
- measured activity of the epimerase after inactivation (UDP-glucose 4'-epimerase [2]; 50 mM galactose, 0.1 mM UMP, 0.25 mg/ml epimerase, 2 h at 30° C.): 3%

- time after which renewed inactivation of the epimerase is observed (UDP-glucose 4'-epimerase [2]): 32 h
- activation of the epimerase (in words) (UDP-glucose 4'-epimerase [2]; [6]): rapid and long-lasting activation
SMILES: C[C@H]1O[C@H](OP(=O)(O)OP(=O)(O)OC[C@H]2O[C@@H](n3ccc(=O)[nH]c3=O)C[C@@H]2O)[C@H](O)[C@@H](O)C1=O [dUDP-6-deoxy-D-xylo-4-hexulose]
- reactivation of the epimerase (in words) (UDP-glucose 4'-epimerase [2]): can be used to reactivate; also recorded: successfully employed to reactivate the epimerase
- activation of the epimerase (in words) (UDP-glucose 4'-epimerase [2]; 1 mM activator, activity monitored over […]): rapid activation of the epimerase, with the activation being stable over the period of observation

SMILES: OC[C@H]1OC(O)[C@H](O)[C@@H](O)[C@@H]1O (stereo partly shown) [Glc, glucose]
- activity at 50000 µM (UDP-glucose 4'-epimerase [1]; [7]): 15.8%
- inactivation of the epimerase (in words) (UDP-glucose 4'-epimerase [1]): inactivated

SMILES: OC[C@H]1OC(O)C[C@@H](O)[C@@H]1O (stereo partly drawn) [2-Deoxyglc, 2-deoxy-D-glucose]
- activity at 50000 µM (UDP-glucose 4'-epimerase [1]; [7]): 20.7%
- inactivation of the epimerase (in words) (UDP-glucose 4'-epimerase [1]): inactivated

- activity at 50000 µM (UDP-glucose 4'-epimerase [1]; [4]): 86.1%
- activity at 50000 µM (UDP-glucose 4'-epimerase [1]; 8 h, acceptor 50 mM, buffer P pH 7.2 containing 0.1 mM UMP, read-out: Rel. activity of the epimerase, incubation time 8h): 29.3%
- Rel. activity of the epimerase, incubation time 7h (UDP-glucose 4'-epimerase [1]; [5]): 75.6
- inactivation of the epimerase (in words) (UDP-glucose 4'-epimerase [1]): inactivated
SMILES: CCCCCCCCOC1O[C@H](CO)[C@@H](O)[C@H](O)[C@H]1O (stereo partly shown) [n-Octylglucopyranoside, n-octylglucopyranoside]

- activity at 50000 µM (UDP-glucose 4'-epimerase [1]; [4]): 93.6%
- Rel. activity of the epimerase, incubation time 7h (UDP-glucose 4'-epimerase [1]; [5]): 97.5
SMILES: CC(=O)N[C@H]1C(O)O[C@H](CO)[C@@H](O)[C@@H]1O (stereo partly shown) [GlcNAc, N-acetylglucosamine]

Source: patent US5962275A, “Method for the enzymatic galactosylation of monosaccharides and oligosaccharides” (Hoechst Aktiengesellschaft, priority 1995, dated 1999)
